Entries after “also recorded” stand apart in the source; their conditions may differ.
B1: myelin basic protein (protein, UniProt P02687 1-169, looked up)
Myelin basic protein: AAQKRPSQRSKYLASASTMDHARHGFLPRHRDTGILDSLGRFFGSDRGAPKRGSGKDGHHAARTTHYGSLPQKAQGHRPQDENPVVHFFKNIVTPRTPPPSQGKGRGLSLSRFSWGAEGQKPGFGYGGRASDYKSAHKGLKGHDAQGTLSKIFKLGGRDSRSGSPMARR
notes: myelin basic protein (obtained from Pel Freez) fed as a control protein

Assays:
Format in all cases: in vivo
[1] = tested on: spontaneous diabetes in NOD mice; assay: Effect of feeding porcine insulin on spontaneous diabetes in NOD mice (Example 1)
Description: NOD (non-obese diabetic mice) were obtained from Taconic Laboratories (Germantown, Mass.) at 4 weeks of age. There were a total of 30 animals in each of the groups mentioned below at the beginning of the experiment. At 4½ weeks of age, animals were orally administered Porcine insulin (Novo Laboratories, Danbury, Conn.). Each animal received two treatments orally twice a week until 9 weeks of age. The mice were fed either saline (control) or 10 micrograms, 100 micrograms, or 1 milligram of Porcine insulin. The animals were fed (gavaged) with an 18 gauge ball-point needle (Popper and Sons, Inc., New Hyde Park, N.Y.). Beginning at 10 weeks the animals were then fed once a week for a total of 33 weeks. Beginning at 12 weeks the urine was tested weekly for the presence of glucose using Glucosuria test tape (Eli Lilly, Indianapolis, Ind.). If an animal tested 3+ or higher on the glucose urine test, a serum sample was taken and blood glucose measured using a glucose analyzer (Beckman). If the blood glucose was 220 or higher, the animals were classified as diabetic and then sacrificed.

[2] = tested on: blood glucose in fasting NOD mice; assay: Glucose post oral insulin in fasting 7 week NOD mice (Example 2); conditions: for blood glucose after feeding: 1 mg fed orally, fasting 7 week old NOD mice
Method: In order to determine whether any endocrinologic (i.e. direct lowering of blood sugar) effects occurred following the feeding of insulin, 7 week old NOD mice (5 mice per group) were fed 1 mg of porcine insulin or 1 mg of myelin basic protein (obtained from Pel Freez, Rogers, Ark.) as a control protein. Blood glucose was then measured over the next 24 hour period. As a positive control, a separate group of animals were injected subcutaneously with 20 micrograms of Porcine insulin. All animals were kept in the fasting state.

[3] = tested on: insulitis in NOD mice; assay: Preliminary experiments on insulitis in insulin-fed NOD mice; conditions: NOD mice fed 1 mg of insulin vs PBS-fed, data not shown
Description: Therefore, oral administration of insulin to NOD mice appeared to be affecting the infiltration of immune system cells into the pancreas and thus halting disease progression by preserving beta cell function.

[4] = tested on: diabetes in NOD mice; assay: Effect of aerosol administration of insulin on diabetes in NOD mice (Example 4); conditions: insulin 0 to 1 mg in aerosol form by nebulizer; expected
Method: Insulin (0 to 1 mg as in Examples 1 and 2) will be administered to NOD mice as described above in Examples 1 and 2 except in aerosol form by nebulizer.

[5] = tested on: NOD mice suffering from hyperglycemia; assay: Treatment of initial stages of diabetes in NOD mice (Example 5); conditions: oral and aerosol administration to hyperglycemic NOD mice; expected
Method: Insulin (0 to 1 mg as in Examples 1 and 2) will be administered to NOD mice which are suffering from hyperglycemia in an oral and aerosol form. The treatments will begin by weeks 12-20 of age, by which the serum glucose levels are at hyperglycemic concentrations in a certain percentage of animals prior to onset of diabetes.

Molecule | development of diabetes ([1]; NOD mice fed 1 mg insulin orally) | development of diabetes ([1]; NOD mice fed 10 micrograms insulin orally) | development of diabetes ([1]; NOD mice fed 100 micrograms insulin orally) | incidence of diabetes ([1]; all doses of orally administered insulin tested (10 micrograms, 100 micrograms, 1 mg)) | blood glucose after feeding [2] | endocrinologic (metabolic) effects from feeding ([2]; 1 mg oral insulin, NOD mice) | period over which the glucose decrease persisted ([2]; 20 micrograms porcine insulin injected subcutaneously, fasting NOD mice) [h] | decrease in glucose level ([2]; 20 micrograms porcine insulin injected subcutaneously, fasting NOD mice (positive control)) | inflammatory immune system cells surrounding the pancreas (insulitis) [3] | prevention of manifestation of symptoms (hyperglycemia) of Type 1 diabetes [4] | beta cell function [5] | serum glucose concentrations [5]
Porcine insulin | none of the mice went on to develop diabetes; also recorded: no diabetes developed; also recorded: None of the animals developed diabetes | diabetes developed | diabetes developed | lower incidence of diabetes; also recorded: reduced the numbers of these mice which subsequently went on to develop diabetes | no drop in the blood glucose | not a metabolic effect; also recorded: no endocrinologic (metabolic) effects | 4 | approximately 80 mg % | fewer inflammatory immune system cells surrounding the pancreas | effective in preventing the manifestation of symptoms | preservation of beta cell function | reduction in serum glucose concentrations to near normal levels
B1 | – | – | – | – | no drop in the blood glucose | – | – | – | – | – | – | –

From US6703361B2, “Method of treating or preventing Type 1 diabetes by oral administration of insulin” (AutoImmune Inc., priority 1990, dated 2004)
